Source: PMC12736570, “The Absorption, Distribution, Excretion, and In Vitro Hepatic Microsomal Metabolism of the Novel CDK Compound XMD12 in Sprague-Dawley Rats” (Pharmaceutics, 2025)
Several values for one entry are separate records, joined by “and”; a condition that tells them apart may be missing. Equal values may be shown once. Read-outs that look alike come from different tables or passages of the source.

Key:
[1] = cited from earlier work
plasma protein = details: cited from earlier work
[2] = Metabolic stability in rat liver microsome incubation system; assay type: in vitro ADME; details: rat liver microsomes
Procedure: Rat liver microsomes (CYP450) were introduced into centrifuge tubes containing phosphate buffer. Different concentrations of the test compound were added to the experimental group, while an equal amount of buffer was added to the control group. Following a 10-min pre-incubation, NADPH was introduced to initiate the reaction, and the mixture was then incubated at 37 °C in a water bath for […]. The incubation system was composed of 10 μL of XMD12 substrate (0.5 μg/mL), 5 μL of rat liver microsomes (20 mg/mL), 20 μL of an NADPH generating system at a final concentration of 1 mM, and 465 μL of phosphate-buffered saline (pH 7.4). The NADPH generating system was prepared by mixing with 5 μL of a complementary Mix solution prior to use. This Mix solution contained MgCl2, EDTA, glucose-6-phosphate, glucose-6-phosphate dehydrogenase, and oxidized nicotinamide adenine dinucleotide phosphate (NADP^+). At intervals of 0, 5, 15, 30, 45, 60, 90, and 120 min, the reaction was halted by adding a cold acetonitrile solution containing the internal standard at a 1:2 ratio. This mixture underwent vigorous vortexing for 3 min before being centrifuged at 14,000 rpm for 10 min. The resulting supernatant was dried using nitrogen gas and subsequently reconstituted with 50% acetonitrile. After thorough vortexing for 2 min, the solution underwent a second centrifugation at 14,000 rpm for 10 min, and the supernatant was then injected into LC-MS/MS for analysis.

[3] = Plasma pharmacokinetics after single intravenous administration and gastric gavage; assay type: in vivo, Sprague-Dawley rats; details: for AUC0-t / AUC0-∞ / CL / Cmax / MRT0-t / Tmax / V / t1/2: n = 5
Procedure: Ten healthy SD rats were divided into two groups, each comprising five rats. Following a 12-h fasting period, the rats in the respective groups were administered XMD12 at dosages of 10 mg/kg via gastric gavage and 2 mg/kg via tail vein injection. The rats were anesthetized with isoflurane, and blood samples of approximately 150 uL were collected via the eye socket vein using capillaries. These samples were obtained prior to dosing (at 0 min) and at intervals of 0.083, 0.25, 0.5, 1, 1.5, 2.5, 4, 6, 8, 12 and 24 h post-dosing. The blood was then placed in centrifuge tubes pre-treated with heparin sodium, centrifuged at 3000 rpm for 10 min, and the resulting supernatant was stored in a refrigerator at −20 °C. The plasma samples underwent processing as per the outlined “Sample Preparation” methods and were analyzed using the specified procedures under “Instrument Conditions” to ascertain XMD12 concentration in the rat plasma at various time points. Utilizing DAS 3.2.8 (BioGuider Co., Shanghai, China), pharmacokinetic software facilitated data processing, computation of pertinent pharmacokinetic parameters, and the creation of blood concentration–time curves for the drug.

[4] = Tissue distribution study after gastric gavage; assay type: in vivo, Sprague-Dawley rats; details: gastric gavage 20 mg/kg
Procedure: Following a 12-h fasting period, 25 SD rats were randomly divided into 5 groups, each comprising 5 rats. These rats were administered the drug at a dosage of 20 mg/kg through gastric gavage. […] Blood was drawn from the abdominal aorta to ensure minimal residual blood within the rats, followed by euthanasia. A variety of tissues including the heart, liver, spleen, lungs, kidneys, stomach, small intestine, fat, muscles, and brain were then harvested. After weighing, all samples were stored in a freezer at −80 °C. The subsequent processing and analysis followed the described methods, aiming to determine the concentration of XMD12 in each tissue sample at different time intervals.

[5] = Urine and feces excretion study after gastric gavage; assay type: in vivo, Sprague-Dawley rats; details: gastric gavage 20 mg/kg
Procedure: Five male SD rats were housed individually in metabolic cages for adaptation for a day. During this period, urine and feces were collected as blank samples. The following day, the rats were orally administered XMD12 at a dose of 20 mg/kg by gastric gavage. Urine and feces samples were then collected at intervals of 0–4 h, 4–8 h, 8–12 h, 12–24 h, and 24–36 h post-administration. Measurements of volume and weight were recorded for each sample. Employing the outlined procedures, these samples underwent processing and analysis to determine the presence of XMD12 across different time spans within the collected urine and feces samples.

[6] = Stability of XMD12 QC samples in rat plasma and liver homogenate; assay type: in vitro ADME
Excerpt: Our analytical approach adheres to a comprehensive set of validation procedures in accordance with the recommendations outlined in the U.S. Food and Drug Administration’s Bioanalytical Method Validation Guidance (USFDA, 2018). These validation steps encompass a range of critical factors, including method specificity, linearity, sensitivity, carryover effect, accuracy, precision, matrix effect, recovery, dilution integrity, and stability. In assessing the method’s selectivity, we initiated the process by comparing chromatograms obtained from various sample sources. These sources included blank rat plasma, blank rat serum samples spiked with a mixture of standards, and rat plasma samples sourced from pharmacokinetic studies conducted on rats. This evaluation concurrently aided us in identifying and addressing any potential interferences that may occur within the acquisition window of XMD12 and the internal standard (IS). To evaluate linearity, a series of XMD12 concentrations was introduced into blank plasma, allowing us to establish a linear regression equation. The calibration curve (n = 5) was constructed by plotting the ratio of peak areas of XMD12 to IS (y-axis) against the nominal concentration ratio of XMD12 to IS (x-axis), followed by subsequent linear regression analysis. The lower limit of quantification (LLOQ) was defined as the lowest concentration point on the calibration curve that guarantees reliable quantification while maintaining accuracy within the range of 80–120% and precision below 20%. We conducted assessments of intra-day and inter-day precision and accuracy by performing six replicate tests on quality control (QC) samples at concentrations of 3, 120, and 1500 ng/mL over both a single day and a span of three days. Matrix effects and extraction recovery were evaluated through a post-extraction addition approach. Furthermore, we conducted a study on the stability of QC samples with high, medium, and low concentrations under four distinct conditions. […]

[7] = p.o. 10 mg∙kg^−1 (gastric gavage), SD rats

CCN1CCN(Cc2ccc(Nc3ncc(F)c(-c4cc(F)c5nc(C)n(C(C)C)c5c4)n3)nc2)CC1 [Abemaciclib]
elimination half-life [1]: 17 to 38 h
oral bioavailability ([1]; human, in vivo): 45%
Tmax ([1]; human, in vivo): under 8 h
fecal excretion ([1]; reported in humans): 81%
plasma protein binding (plasma protein; plasma): 96.3%

CC(=O)c1c(C)c2cnc(Nc3ccc(N4CCNCC4)cn3)nc2n(C2CCCC2)c1=O [Palbociclib]
Tmax [1]: 6 to 12 h
elimination half-life [1]: 24 to 34 h
volume of distribution [1]: ~2800 L
volume of distribution (Vd) ([1]; reported in humans): ~ 2800 L
plasma protein binding (plasma protein): 85.3%

CN(C)C(=O)c1cc2cnc(Nc3ccc(N4CCNCC4)cn3)nc2n1C1CCCC1 [Ribociclib]
oral bioavailability ([1]; human, in vivo): 65.8%
Tmax ([1]; human, in vivo): 1 to 5 h
elimination half-life ([1]; human, in vivo): 30 to 55 h
fecal excretion ([1]; human, in vivo): 69.1%
volume of distribution (Vd) ([1]; human, in vivo): 1090 L

COc1cc(F)ccc1-c1nc(Nc2cccc(N3CCOCC3)c2)ncc1F [XMD12]
parent compound remaining ([2]; 5 min incubation, 37 °C, NADPH): 68.8%
parent compound remaining ([2]; 45 min incubation): 20%
metabolic rate ([2]; 120 min): 87%
parent compound remaining ([2]; 120 min incubation): 13%
intrinsic clearance (CLint) ([2]; CLint = k × (V/P), V 500 μL, P 0.1 mg): 98.5 μL/min/mg protein
degradation rate constant (k) ([2]; regression of ln remaining percentage vs incubation time): 0.0197 min⁻¹
plasma concentration ([3]; gastric gavage 10 mg/kg, within 8 h): approaching the LLOQ
plasma concentration ([3]; i.v. 2 mg/kg, by 8 h): below the lower limit of quantification (LLOQ)
plasma concentration ([3]; i.v. 2 mg/kg, within 30 min): 59.88 ng/mL
AUC0-t ([3]; i.v. 2 mg∙kg^−1, SD rats): 357.21 ± 66.60 ng·h/mL
AUC0-∞ ([3]; i.v. 2 mg∙kg^−1, SD rats): 360.03 ± 66.00 ng·h/mL
CL ([3]; i.v. 2 mg∙kg^−1, SD rats): 94.8 ± 15.8 mL/min/kg
Cmax ([3]; i.v. 2 mg∙kg^−1, SD rats): 827.00 ± 191.30 ng/mL
MRT0-t ([3]; i.v. 2 mg∙kg^−1, SD rats): 0.74 ± 0.08 h
Tmax ([3]; i.v. 2 mg∙kg^−1, SD rats): 0.083 h
V ([3]; i.v. 2 mg∙kg^−1, SD rats): 12.29 ± 3.98 L/kg
t1/2 ([3]; i.v. 2 mg∙kg^−1, SD rats): 1.47 ± 0.29 h
peak concentration after gastric gavage relative to intravenous levels ([3]; p.o. 10 mg/kg vs i.v. 2 mg/kg): below 5%
AUC0-t [3, 7]: 117.78 ± 28.97 ng·h/mL
AUC0-∞ [3, 7]: 120.06 ± 30.19 ng·h/mL
CL [3, 7]: 1444 ± 278.7 mL/min/kg
Cmax [3, 7]: 38.26 ± 10.90 ng/mL
MRT0-t [3, 7]: 2.475 ± 0.344 h
Tmax [3, 7]: 1.300 ± 0.758 h
V [3, 7]: 150.59 ± 34.37 L/kg
t1/2 [3, 7]: 1.21 ± 0.16 h
F (bioavailability) ([3]; p.o. 10 mg∙kg^−1 vs i.v. 2 mg∙kg^−1, SD rats): 6.67%
plasma half-life ([3]; rat plasma, route not stated): 1 h
time to peak drug concentration in gastrointestinal tissues (stomach and intestines) [4]: 0.5 to 1 h
brain concentration ([4]; 1 h): 930.17 ± 762.76 ng/g
liver peak concentration ([4]; 1 h, 20 mg/kg): 24,768 ± 2436.62 ng/g and 24,768 ng/g
liver concentration ([4]; 5 h): 2241.9 ± 1193.07 ng/g
liver concentration as percent of the peak value ([4]; 5 h post-dosing): 9%
concentration in all tissues as percent of peak levels ([4]; by 5 h): below 10%
interval of rapid fecal elimination [5]: 12 to 24 h
peak urinary elimination window [5]: 12 to 24 h
cumulative fecal excretion (of the administered dose) ([5]; 0–36 h): 62.36% ± 19.97%
cumulative urinary excretion rate ([5]; 0–36 h, 20 mg/kg): 0.0068% and 0.0068% ± 0.0028%
stability, Accuracy ([6]; liver, nominal 30.0 ng∙mL^−1, 6 h at room temperature): 100.93%
stability, Accuracy ([6]; liver, nominal 30.0 ng∙mL^−1, 15 d, −80 °C): 97.53%
stability, Accuracy ([6]; liver, nominal 30.0 ng∙mL^−1, autosample at ambient temperature for 6 h): 100.80%
stability, Accuracy ([6]; liver, nominal 30.0 ng∙mL^−1, freeze–thaw (3 circles)): 100.47%
stability, Accuracy ([6]; liver, nominal 800.0 ng∙mL^−1, 6 h at room temperature): 101.93%
stability, Accuracy ([6]; liver, nominal 800.0 ng∙mL^−1, 15 d, −80 °C): 99.40%
stability, Accuracy ([6]; liver, nominal 800.0 ng∙mL^−1, freeze–thaw (3 circles)): 99.78%
stability, Accuracy ([6]; liver, nominal 1600.0 ng∙mL^−1, 6 h at room temperature): 101.56%
stability, Accuracy ([6]; liver, nominal 1600.0 ng∙mL^−1, 15 d, −80 °C): 101.63%
stability, Accuracy ([6]; liver, nominal 1600.0 ng∙mL^−1, autosample at ambient temperature for 6 h): 100.94%
stability, Accuracy ([6]; liver, nominal 1600.0 ng∙mL^−1, freeze–thaw (3 circles)): 97.75%
stability, Accuracy ([6]; plasma, nominal 5 ng∙mL^−1, 6 h at room temperature): 105.58%
stability, Accuracy ([6]; plasma, nominal 5 ng∙mL^−1, 15 d, −80 °C): 94.20%
stability, Accuracy ([6]; plasma, nominal 5 ng∙mL^−1, autosample at ambient temperature for 6 h): 92.16%
stability, Accuracy ([6]; plasma, nominal 5 ng∙mL^−1, freeze–thaw (3 circles)): 97.10%
stability, Accuracy ([6]; plasma, nominal 90 ng∙mL^−1, 6 h at room temperature): 108.60%
stability, Accuracy ([6]; plasma, nominal 90 ng∙mL^−1, 15 d, −80 °C): 93.76%
stability, Accuracy ([6]; plasma, nominal 90 ng∙mL^−1, autosample at ambient temperature for 6 h): 92.44%
stability, Accuracy ([6]; plasma, nominal 90 ng∙mL^−1, freeze–thaw (3 circles)): 107.22%
stability, Accuracy ([6]; plasma, nominal 800 ng∙mL^−1, 6 h at room temperature): 110.80%
stability, Accuracy ([6]; plasma, nominal 800 ng∙mL^−1, 15 d, −80 °C): 102.22%
stability, Accuracy ([6]; plasma, nominal 800 ng∙mL^−1, autosample at ambient temperature for 6 h): 90.02%
stability, Accuracy ([6]; plasma, nominal 800 ng∙mL^−1, freeze–thaw (3 circles)): 106.80%
